“And” between values parts separate entries of the source, which are not always exact repeats. Equal entries are not always repeated. Ends that are not written are not given here.
Assays:
Blood pressure = assay type: in vivo, cynomolgus monkeys (Macaca fascicularis); details: for Blood Pressure Difference: Week 2 vs Week-1; for Blood Pressure Week-1: before dosing
[1] = Hormone determinations in serum; assay type: in vivo, cynomolgus monkeys (Macaca fascicularis); details: males
Text: Blood sampling. […] Blood samples were taken from a peripheral vein.

[2] = cynomolgus monkey, in vivo
Text: Animals. […] Solvent was used as vehicle for the control group.
The animals used in this analysis were cynomolgus monkeys (Macaca fascicularis), supplied by Centre de Recherches Primatologiques, Port Louis, Mauritius. Two animals were used per group and sex. At the beginning of the treatment period, the animals were at least 24 months old, with a body weight of approximately 3 kg. Animals were kept under standard conditions for animal welfare. Animals were examined daily for mortality, food consumption and clinical observations. Body weight was recorded once per week.

[3] = urine, females, day −8 (pre-dose)

SVSEIQLLHDKGKHLASQERVEWLRKKLQDVHTA [PTS893, Leu8, Asp10, Lys11, Ala16, Gln18, Thr33, Ala34 human PTH 1-34 [hPTH(1-34)]]
LDH (urine) (Urinary analysis; males, day −6 (before dosing)): 7.0 IU/L and 9.0 IU/L | CREAT (Urinary analysis; urine, females, day 13): 5620 µmol/L and 8060 µmol/L | Ca2+ (Urinary analysis; urine, females, day 13): 20.05 mmol/L and 12.35 mmol/L | Cl− (Urinary analysis; urine, females, day 13): 101 mmol/L and 133 mmol/L | LDH (Urinary analysis; urine, females, day 13): 10.0 IU/L and 9.0 IU/L | Mg2+ (Urinary analysis; urine, females, day 13): 6.90 mmol/L and 5.90 mmol/L | VOLUME (Urinary analysis; urine, females, day 13 of dosing): 52 mL and 42 mL | CREAT (Urinary analysis; [3]): 19160 µmol/L and 14060 µmol/L | Ca2+ (Urinary analysis; [3]): 11.50 mmol/L and 6.60 mmol/L | K+ (Urinary analysis; [3]): 302 mmol/L and 164 mmol/L | LDH (Urinary analysis; [3]): 11.0 IU/L and 18.0 IU/L | Mg2+ (Urinary analysis; [3]): 7.35 mmol/L and 4.00 mmol/L | Na+ (Urinary analysis; [3]): 145 mmol/L and 118 mmol/L | Blood Pressure Week 2 (Blood pressure; Female, first line per animal): 70 mmHg and 87 mmHg | Blood Pressure Difference (Blood pressure; Female, first line per animal): −22 mmHg and 9 mmHg | Blood Pressure Week-1 (Blood pressure; Female, first line per animal): 92 mmHg and 78 mmHg | Blood Pressure Week 2 (Blood pressure; Female, second line per animal): 42 mmHg and 28 mmHg | Blood Pressure Difference (Blood pressure; Female, second line per animal): −1 mmHg and 4 mmHg | Blood Pressure Week-1 (Blood pressure; Female, second line per animal): 43 mmHg and 24 mmHg | Blood Pressure Week 2 (Blood pressure; Male, first line per animal): 87 mmHg and 101 mmHg | Blood Pressure Difference (Blood pressure; Male, first line per animal): 11 mmHg and −5 mmHg | Blood Pressure Week-1 (Blood pressure; Male, first line per animal): 76 mmHg and 106 mmHg | Blood Pressure Week 2 (Blood pressure; Male, second line per animal): 22 mmHg and 33 mmHg | Blood Pressure Difference (Blood pressure; Male, second line per animal): 4 mmHg and −20 mmHg | Blood Pressure Week-1 (Blood pressure; Male, second line per animal): 18 mmHg and 53 mmHg | ACTH ([1]; day 7): 101 pg/mL and 88 pg/mL | ALDOST ([1]; day 7): 380 pg/mL and 471 pg/mL | C-PEPTI ([1]; day 7): 2.90 ng/mL and 4.40 ng/mL | CORTISOL ([1]; day 7): 1156 nmol/L and 1432 nmol/L | CT ([1]; day 7): 4.0 pg/mL and 7.8 pg/mL | G.H. ([1]; day 7): 15.8 ng/mL and 11.6 ng/mL | GASTRIN ([1]; day 7): 84 pg/mL and 98 pg/mL | GLUCAG ([1]; day 7): 656 pg/mL and 497 pg/mL | INSULIN ([1]; day 7): 22.0 mU/l and 38.0 mU/l | IPH ([1]; day 7): 96 pg/mL and 62 pg/mL | S.MED ([1]; day 7): 749 ng/mL and 828 ng/mL | T3 ([1]; day 7): 3.47 nmol/L and 2.76 nmol/L | T4 ([1]; day 7): 90 nmol/L and 80 nmol/L | VD25-H ([1]; day 7): 62 nmol/L | ACTH ([1]; day 13): 83 pg/mL and 91 pg/mL | ALDOST ([1]; day 13): 592 pg/mL and 651 pg/mL | C-PEPTI ([1]; day 13): 2.10 ng/mL and 2.40 ng/mL | CORTISOL ([1]; day 13): 1299 nmol/L and 1212 nmol/L | CT ([1]; day 13): 4.6 pg/mL and 7.6 pg/mL | G.H. ([1]; day 13): 12.1 ng/mL and 14.0 ng/mL | GASTRIN ([1]; day 13): 78 pg/mL and 94 pg/mL | GLUCAG ([1]; day 13): 786 pg/mL and 739 pg/mL | INSULIN ([1]; day 13): 14.0 mU/l and 10.0 mU/l | IPH ([1]; day 13): 78 pg/mL and 55 pg/mL | S.MED ([1]; day 13): 914 ng/mL and 867 ng/mL | T3 ([1]; day 13): 3.55 nmol/L and 2.43 nmol/L | T4 ([1]; day 13): 68 nmol/L and 56 nmol/L | VD25-H ([1]; day 13): 50 nmol/L | ALDOST ([1]; day −6 (pre-dose)): 265 pg/mL and 141 pg/mL | CORTISOL ([1]; day −6 (pre-dose)): 1662 nmol/L and 1506 nmol/L | CT ([1]; day −6 (pre-dose)): 6.1 pg/mL and 10.4 pg/mL | G.H. ([1]; day −6 (pre-dose)): 13.4 ng/mL and 8.5 ng/mL | GLUCAG ([1]; day −6 (pre-dose)): 858 pg/mL and 694 pg/mL | INSULIN ([1]; day −6 (pre-dose)): 16.0 mU/l and 12.0 mU/l | IPH ([1]; day −6 (pre-dose)): 123 pg/mL and 71 pg/mL | PROLACT ([1]; day −6 (pre-dose)): 7.1 ng/mL and 7.5 ng/mL | T3 ([1]; day −6 (pre-dose)): 2.48 nmol/L and 1.38 nmol/L | T4 ([1]; day −6 (pre-dose)): 84 nmol/L and 59 nmol/L | VD25-H ([1]; day −6 (pre-dose)): 77 nmol/L and 88 nmol/L | ACTH ([1]; day −6 relative to start of dosing (pre-dose)): 96 pg/mL and 115 pg/mL | Food Consumption Avg., Both animals [2]: 89.6
